In assay [1] the test system is HEK293. Description: HEK293T cell viability loss, resazurin readout – resazurin fluorescence, cytotoxicity control for NF-kB activator project, SAR follow-up (AID 493251). Type of assay: functional, cell-based. Particulars: Homo sapiens. In general terms: Alamar Blue is a resazurin reagent that responds to reducing activity.
Assay [2] has as its target 72 kDa type IV collagenase (Homo sapiens, UniProt P08253). Description: Dose Response validation of uHTS RPN11 inhibitor hits using a MMP-2 Fluorescence assay. Type of assay: functional.
A further assay concerns the target Prothrombin (Bos taurus, UniProt P00735). Description: thrombin protease inhibitors – biochemical, fluorescence polarization, uHTS hits, dose response (AID 602369). Type of assay: functional. For orientation: Fluorescence polarisation rises when a labelled molecule tumbles more slowly, as on binding a larger partner.
In assay [3] the target is 26S proteasome non-ATPase regulatory subunit 14 (Homo sapiens, UniProt O00487). The assay is described as follows: inhibition of proteasome subunit RPN11 – biochemical, fluorescence polarization, uHTS hits, confirmation (AID 602368). Type of assay: functional.
A short description of assay [4]: viability of uninfected HEp-2 cells – cell-based, HTS, cytotoxicity control for RSV inhibitor project, dose response (AID 2410). Type of assay: functional. Particulars: human respiratory syncytial virus.
For assay [5], the target named is DNA repair and recombination protein RAD54-like (Homo sapiens, UniProt Q92698). Description: RAD54 Holliday junction migration blockers – biochemical, fluorescence, cherry-picked samples, dose series, confirmation (AID 651657). Type of assay: functional.
Assay [6] can be described thus: cAMP pathway inhibition in counterscreen cell line – TR-FRET cAMP detection, counter-screen for MC4R biased antagonist project, dose response (AID 602305).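 Also: U2OS cells stimulated with forskolin near its EC80 as the cAMP inducer; potency is for inhibition of forskolin-stimulated cAMP signaling.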 Type of assay: functional, cell-based. (The purpose of a counterscreen is to sort out artefacts and off-target activity.)
Another assay concerns the target Melanocortin receptor 4 (Homo sapiens, UniProt P32245). Description: inhibitors of MC4R cAMP signaling – cell-based, TR-FRET, biased antagonists, dose response (AID 602298).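 Also: antagonist potency against agonist-stimulated cAMP production.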 Type of assay: functional.
The target in assay [7] is T1, Small ubiquitin-related modifier 1 (Homo sapiens, UniProt P63165). Description: SUMO1 protein interaction blockers, potency – biochemical, fluorescence polarization, uHTS hits, dose response (AID 624382). Particulars: read-out: IC50_Mean. Type of assay: functional.
Assay [8] has as its target T2, SUMO-activating enzyme (Homo sapiens, UniProt Q9UBT2). Description: blockers of SAE1/SAE2–UBC9 SUMO transfer – biochemical, HTRF, uHTS, primary screen (AID 2006). Type of assay: protein-complex assay.
Assay [9] concerns the target DNA (cytosine-5)-methyltransferase 1 (Homo sapiens, UniProt P26358). Description: inhibition of DNA methylation by DNMT1 – biochemical, fluorescent molecular beacon, confirmation (AID 602386). Type of assay: functional.
Assay [10] deals with T2, SUMO-activating enzyme. The assay is described as follows: blockers of UBC9-mediated SUMO conjugation – biochemical, AlphaScreen, SUMOylation inhibitor project, confirmation (AID 2018). Type of assay: functional.
The target of assay [11] is T1, Small ubiquitin-related modifier 1. The assay is described as follows: SUMO1 protein-protein binding blockers, potency – biochemical, FRET, dose response (AID 624383). Type of assay: functional. Particulars: read-out: IC50_Mean.
Assay [12] has as its target T3, Apoptotic protease-activating factor 1 (Homo sapiens, UniProt O14727).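 Also: caspase-3 cleavage of fluorogenic Rh110 DEVD substrate downstream of apoptosome activation.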
T3 sequence (O14727 whole entry): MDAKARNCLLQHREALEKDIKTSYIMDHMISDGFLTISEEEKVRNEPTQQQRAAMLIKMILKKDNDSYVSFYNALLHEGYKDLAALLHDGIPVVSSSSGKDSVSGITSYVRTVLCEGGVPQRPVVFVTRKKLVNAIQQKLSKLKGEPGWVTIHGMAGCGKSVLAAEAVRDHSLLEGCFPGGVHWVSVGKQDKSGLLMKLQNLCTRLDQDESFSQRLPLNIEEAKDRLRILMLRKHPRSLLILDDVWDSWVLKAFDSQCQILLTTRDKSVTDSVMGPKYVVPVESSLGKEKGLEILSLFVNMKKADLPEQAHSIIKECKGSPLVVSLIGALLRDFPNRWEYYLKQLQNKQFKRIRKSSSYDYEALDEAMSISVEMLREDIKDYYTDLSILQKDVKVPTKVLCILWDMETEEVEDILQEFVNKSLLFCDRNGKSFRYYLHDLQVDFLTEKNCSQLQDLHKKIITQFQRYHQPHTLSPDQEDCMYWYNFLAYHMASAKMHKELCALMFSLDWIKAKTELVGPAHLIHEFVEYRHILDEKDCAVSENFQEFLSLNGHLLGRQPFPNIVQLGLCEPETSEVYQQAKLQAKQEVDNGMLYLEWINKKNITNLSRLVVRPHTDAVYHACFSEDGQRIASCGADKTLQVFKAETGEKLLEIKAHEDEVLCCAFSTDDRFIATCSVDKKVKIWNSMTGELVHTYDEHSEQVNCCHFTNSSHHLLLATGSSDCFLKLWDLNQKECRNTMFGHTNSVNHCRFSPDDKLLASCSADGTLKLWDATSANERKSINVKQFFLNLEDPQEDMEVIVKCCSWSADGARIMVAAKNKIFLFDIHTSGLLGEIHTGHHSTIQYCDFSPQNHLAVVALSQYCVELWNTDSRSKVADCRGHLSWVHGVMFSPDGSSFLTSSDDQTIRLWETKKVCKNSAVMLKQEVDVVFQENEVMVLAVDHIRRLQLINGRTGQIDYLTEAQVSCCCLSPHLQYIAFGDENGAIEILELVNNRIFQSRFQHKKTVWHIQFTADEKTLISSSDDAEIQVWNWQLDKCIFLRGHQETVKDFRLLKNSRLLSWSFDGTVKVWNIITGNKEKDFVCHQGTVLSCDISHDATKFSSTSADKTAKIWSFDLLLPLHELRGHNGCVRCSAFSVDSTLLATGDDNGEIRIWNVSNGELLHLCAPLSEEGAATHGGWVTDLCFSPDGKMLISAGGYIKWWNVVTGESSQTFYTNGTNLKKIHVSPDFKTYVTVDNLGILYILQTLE
The assay is described as follows: SAR analysis of small molecule Activators of Apaf-1 in a Fluorescent assay. Type of assay: functional. The note with it: read-out: EC50_Mean.

Assay [13] can be described thus: NIH3T3 cell viability loss – ATP luminescence, mouse fibroblasts, counter-screen, dose response (AID 2010).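 Also: cells exposed to compound for about 90 hours before reading.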 Type of assay: functional, cell-based.
A short description of assay [14]: Trypanosoma cruzi growth suppression in host cells – NIH3T3 host cells, beta-gal luminescence, confirmation (AID 2044).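 Also: intracellular parasites grown in NIH/3T3 mouse fibroblasts as host cells; luminescent beta-galactosidase reporter signal from transgenic T. cruzi replicating inside host cells; inhibitors lower the luminescence signal.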 Type of assay: functional, cell-based.
The target in assay [15] is T4, Nucleotide-binding oligomerization domain-containing protein 1 (Homo sapiens, UniProt Q9Y239).
T4 sequence (Q9Y239 whole entry): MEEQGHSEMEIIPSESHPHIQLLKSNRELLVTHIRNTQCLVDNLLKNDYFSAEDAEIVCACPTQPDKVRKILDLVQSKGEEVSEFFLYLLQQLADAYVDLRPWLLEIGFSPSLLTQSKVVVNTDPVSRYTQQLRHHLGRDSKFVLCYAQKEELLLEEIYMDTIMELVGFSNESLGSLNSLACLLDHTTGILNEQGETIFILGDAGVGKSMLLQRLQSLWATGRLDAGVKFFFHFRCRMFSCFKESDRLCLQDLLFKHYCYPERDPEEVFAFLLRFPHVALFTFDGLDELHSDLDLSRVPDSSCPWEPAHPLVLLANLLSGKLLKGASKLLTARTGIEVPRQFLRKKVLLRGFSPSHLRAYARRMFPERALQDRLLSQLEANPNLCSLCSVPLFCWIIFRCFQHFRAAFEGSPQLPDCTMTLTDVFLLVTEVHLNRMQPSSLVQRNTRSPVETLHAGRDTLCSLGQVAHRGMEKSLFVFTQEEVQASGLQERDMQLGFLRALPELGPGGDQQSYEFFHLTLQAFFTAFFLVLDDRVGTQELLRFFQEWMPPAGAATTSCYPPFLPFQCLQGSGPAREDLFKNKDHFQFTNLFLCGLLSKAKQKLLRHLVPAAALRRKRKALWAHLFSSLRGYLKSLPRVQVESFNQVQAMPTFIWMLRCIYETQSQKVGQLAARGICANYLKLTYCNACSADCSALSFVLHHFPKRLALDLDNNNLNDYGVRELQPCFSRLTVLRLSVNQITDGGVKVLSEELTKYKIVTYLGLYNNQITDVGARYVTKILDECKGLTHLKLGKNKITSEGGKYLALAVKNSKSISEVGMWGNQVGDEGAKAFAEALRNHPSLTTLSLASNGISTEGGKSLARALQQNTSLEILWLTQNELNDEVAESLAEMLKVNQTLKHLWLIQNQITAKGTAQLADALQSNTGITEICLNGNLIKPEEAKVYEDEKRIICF
The assay is described as follows: blockers of NOD1 pathway activity – revised, SAR follow-up (AID 2333). Type of assay: functional.

Assay [16] can be described thus: HEK-293T viability loss, compound-treated – cell-based, uHTS hits, cytotoxicity control for B/T-cell NF-kB inhibitor project, dose response (AID 489019).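 Also: IC50 reflects cytotoxicity as loss of cell viability.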 Type of assay: functional.
The test system of a further assay is INS1. Description: INS-1E survival protection against cytokine death – cell-based, luminescence, retest, dose response (AID 449756).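 Also: cell death triggered by IL-1 beta plus TNF-alpha plus IFN-gamma mixture; protective hits raise ATP signal compared with cytokine alone wells.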 Type of assay: functional. Particulars: Rattus norvegicus.
Assay [17] relates to HEK293. Description: cells. Particulars: Homo sapiens.
For another assay, the target named is T5, Galanin receptor type 3 (Homo sapiens, UniProt O60755).
T5 sequence (O60755 whole entry): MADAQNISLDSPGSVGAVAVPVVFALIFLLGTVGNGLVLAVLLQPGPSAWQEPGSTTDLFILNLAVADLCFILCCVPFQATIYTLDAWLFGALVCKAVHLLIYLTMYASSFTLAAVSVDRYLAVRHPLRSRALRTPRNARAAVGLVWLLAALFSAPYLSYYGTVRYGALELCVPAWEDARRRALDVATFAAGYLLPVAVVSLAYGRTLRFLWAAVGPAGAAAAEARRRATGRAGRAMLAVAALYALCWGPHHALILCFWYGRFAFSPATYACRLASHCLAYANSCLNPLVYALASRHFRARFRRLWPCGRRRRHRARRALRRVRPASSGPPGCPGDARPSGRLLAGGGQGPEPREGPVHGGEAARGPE
The assay is described as follows: Fluorescence-based cell-based primary high throughput dose response assay to identify antagonists of the Galanin Receptor 3 (GalR3). Type of assay: functional.

For the next assay, the system named is Jurkat. Description: blockers of NF-kB activation in T cells – Jurkat, luciferase reporter, luminescence, B- and T-cell, dose response (AID 489004).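 Also: NF-kB luciferase reporter Jurkat cells stimulated with PMA plus ionomycin.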 Type of assay: functional, cell-based. Particulars: Homo sapiens.
The next assay deals with Tumor necrosis factor (Homo sapiens, UniProt P01375). Description: analog potency on TNFa NF-kB signaling – cell-based, revised, SAR follow-up (AID 2337). Type of assay: functional.
The next assay is described as follows: cells. Type of assay: functional, cell-based. The note with it: HEK-CNG.

The source made the active and inactive calls.

T2 sequence (Q9UBE0 whole entry): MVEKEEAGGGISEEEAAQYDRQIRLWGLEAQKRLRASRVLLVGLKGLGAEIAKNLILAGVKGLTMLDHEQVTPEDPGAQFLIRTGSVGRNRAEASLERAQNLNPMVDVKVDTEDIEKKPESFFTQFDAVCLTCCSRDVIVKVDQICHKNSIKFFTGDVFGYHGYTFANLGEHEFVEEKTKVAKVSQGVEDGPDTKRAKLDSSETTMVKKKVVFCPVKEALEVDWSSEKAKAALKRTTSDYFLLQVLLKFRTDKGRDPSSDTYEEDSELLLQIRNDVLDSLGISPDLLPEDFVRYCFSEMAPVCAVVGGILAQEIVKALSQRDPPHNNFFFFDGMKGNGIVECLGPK
T2 sequence (Q9UBT2 whole entry): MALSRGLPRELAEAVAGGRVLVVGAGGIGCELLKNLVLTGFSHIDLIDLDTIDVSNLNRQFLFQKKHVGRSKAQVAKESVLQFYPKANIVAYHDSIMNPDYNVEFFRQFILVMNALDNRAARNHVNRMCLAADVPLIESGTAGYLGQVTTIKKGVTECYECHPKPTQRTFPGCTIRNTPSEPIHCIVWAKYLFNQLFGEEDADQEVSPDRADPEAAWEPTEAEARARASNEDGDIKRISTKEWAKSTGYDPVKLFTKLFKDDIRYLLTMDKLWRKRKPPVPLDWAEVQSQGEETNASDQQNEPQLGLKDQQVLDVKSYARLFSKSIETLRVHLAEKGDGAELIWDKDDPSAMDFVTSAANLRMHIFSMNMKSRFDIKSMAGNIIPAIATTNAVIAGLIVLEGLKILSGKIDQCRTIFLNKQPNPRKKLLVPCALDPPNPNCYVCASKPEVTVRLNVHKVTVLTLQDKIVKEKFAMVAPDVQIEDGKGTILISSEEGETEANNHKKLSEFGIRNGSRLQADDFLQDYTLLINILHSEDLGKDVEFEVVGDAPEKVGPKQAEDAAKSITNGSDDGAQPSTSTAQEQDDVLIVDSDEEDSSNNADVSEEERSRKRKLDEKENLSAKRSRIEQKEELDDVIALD
72 kDa type IV collagenase, sequence (P08253 whole entry): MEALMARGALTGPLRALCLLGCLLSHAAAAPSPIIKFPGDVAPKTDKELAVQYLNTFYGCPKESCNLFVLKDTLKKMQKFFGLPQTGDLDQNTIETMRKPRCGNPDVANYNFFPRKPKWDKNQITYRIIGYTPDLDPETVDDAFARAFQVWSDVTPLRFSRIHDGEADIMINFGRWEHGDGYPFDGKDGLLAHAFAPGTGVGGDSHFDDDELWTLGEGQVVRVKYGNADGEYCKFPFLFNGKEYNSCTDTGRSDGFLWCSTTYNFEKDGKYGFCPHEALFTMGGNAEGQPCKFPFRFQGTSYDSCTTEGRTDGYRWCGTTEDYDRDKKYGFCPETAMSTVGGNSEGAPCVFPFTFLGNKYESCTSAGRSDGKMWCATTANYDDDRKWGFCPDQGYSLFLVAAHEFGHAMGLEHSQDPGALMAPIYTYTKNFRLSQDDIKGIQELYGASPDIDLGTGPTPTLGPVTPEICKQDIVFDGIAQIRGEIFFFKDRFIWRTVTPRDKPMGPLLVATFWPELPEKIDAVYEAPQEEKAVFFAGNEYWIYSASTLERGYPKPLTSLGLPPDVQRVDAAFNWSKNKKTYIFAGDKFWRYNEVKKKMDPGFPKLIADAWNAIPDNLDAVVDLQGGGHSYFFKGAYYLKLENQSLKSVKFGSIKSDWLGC
Melanocortin receptor 4, sequence (P32245 whole entry): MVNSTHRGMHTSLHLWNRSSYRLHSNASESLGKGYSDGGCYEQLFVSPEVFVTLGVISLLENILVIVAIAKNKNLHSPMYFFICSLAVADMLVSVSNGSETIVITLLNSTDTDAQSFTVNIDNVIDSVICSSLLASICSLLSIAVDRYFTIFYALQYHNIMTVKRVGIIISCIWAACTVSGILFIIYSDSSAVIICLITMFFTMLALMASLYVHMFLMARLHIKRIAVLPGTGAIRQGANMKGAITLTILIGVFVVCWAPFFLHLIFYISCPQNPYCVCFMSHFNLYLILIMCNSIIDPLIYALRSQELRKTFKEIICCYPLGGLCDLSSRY
26S proteasome non-ATPase regulatory subunit 14, sequence (O00487 whole entry): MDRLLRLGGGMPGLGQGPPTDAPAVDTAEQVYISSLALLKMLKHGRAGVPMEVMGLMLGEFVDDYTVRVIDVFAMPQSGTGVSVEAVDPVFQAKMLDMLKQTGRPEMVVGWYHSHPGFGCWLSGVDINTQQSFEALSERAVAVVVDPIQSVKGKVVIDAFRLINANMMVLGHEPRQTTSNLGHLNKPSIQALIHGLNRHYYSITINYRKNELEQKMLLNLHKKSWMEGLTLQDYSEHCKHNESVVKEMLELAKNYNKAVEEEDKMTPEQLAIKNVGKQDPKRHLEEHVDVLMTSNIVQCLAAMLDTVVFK
T1 sequence (P63165 whole entry): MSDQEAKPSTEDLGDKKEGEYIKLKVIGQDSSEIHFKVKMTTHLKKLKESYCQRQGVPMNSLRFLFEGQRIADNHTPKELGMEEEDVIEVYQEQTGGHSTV
Tumor necrosis factor, sequence (P01375 whole entry): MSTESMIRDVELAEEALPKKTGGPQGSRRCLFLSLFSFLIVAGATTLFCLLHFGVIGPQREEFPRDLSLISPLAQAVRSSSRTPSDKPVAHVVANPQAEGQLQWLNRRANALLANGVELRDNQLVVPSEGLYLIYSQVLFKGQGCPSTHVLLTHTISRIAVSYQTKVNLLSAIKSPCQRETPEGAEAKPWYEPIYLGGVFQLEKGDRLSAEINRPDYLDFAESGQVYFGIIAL
DNA repair and recombination protein RAD54-like, sequence (Q92698 whole entry): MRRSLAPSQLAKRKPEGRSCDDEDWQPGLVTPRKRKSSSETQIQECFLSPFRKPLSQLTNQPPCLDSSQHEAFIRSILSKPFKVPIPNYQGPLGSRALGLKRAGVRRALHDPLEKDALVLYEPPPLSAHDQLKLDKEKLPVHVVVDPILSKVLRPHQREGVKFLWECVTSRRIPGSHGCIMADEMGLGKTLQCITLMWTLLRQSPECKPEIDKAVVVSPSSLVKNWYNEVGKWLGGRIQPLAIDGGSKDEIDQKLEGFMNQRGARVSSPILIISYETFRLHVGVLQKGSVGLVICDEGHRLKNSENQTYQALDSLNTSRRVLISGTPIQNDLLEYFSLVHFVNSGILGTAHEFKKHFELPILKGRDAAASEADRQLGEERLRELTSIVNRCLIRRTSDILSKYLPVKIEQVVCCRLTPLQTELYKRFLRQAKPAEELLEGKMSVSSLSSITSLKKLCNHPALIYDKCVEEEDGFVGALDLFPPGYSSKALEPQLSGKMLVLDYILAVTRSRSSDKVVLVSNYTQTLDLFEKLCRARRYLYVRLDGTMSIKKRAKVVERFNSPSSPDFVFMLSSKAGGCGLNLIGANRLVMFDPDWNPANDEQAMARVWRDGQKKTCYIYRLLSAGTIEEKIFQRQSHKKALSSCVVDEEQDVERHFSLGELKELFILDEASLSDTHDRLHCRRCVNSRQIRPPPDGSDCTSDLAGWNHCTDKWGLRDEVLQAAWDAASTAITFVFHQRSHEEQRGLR
DNA (cytosine-5)-methyltransferase 1, sequence (P26358 whole entry): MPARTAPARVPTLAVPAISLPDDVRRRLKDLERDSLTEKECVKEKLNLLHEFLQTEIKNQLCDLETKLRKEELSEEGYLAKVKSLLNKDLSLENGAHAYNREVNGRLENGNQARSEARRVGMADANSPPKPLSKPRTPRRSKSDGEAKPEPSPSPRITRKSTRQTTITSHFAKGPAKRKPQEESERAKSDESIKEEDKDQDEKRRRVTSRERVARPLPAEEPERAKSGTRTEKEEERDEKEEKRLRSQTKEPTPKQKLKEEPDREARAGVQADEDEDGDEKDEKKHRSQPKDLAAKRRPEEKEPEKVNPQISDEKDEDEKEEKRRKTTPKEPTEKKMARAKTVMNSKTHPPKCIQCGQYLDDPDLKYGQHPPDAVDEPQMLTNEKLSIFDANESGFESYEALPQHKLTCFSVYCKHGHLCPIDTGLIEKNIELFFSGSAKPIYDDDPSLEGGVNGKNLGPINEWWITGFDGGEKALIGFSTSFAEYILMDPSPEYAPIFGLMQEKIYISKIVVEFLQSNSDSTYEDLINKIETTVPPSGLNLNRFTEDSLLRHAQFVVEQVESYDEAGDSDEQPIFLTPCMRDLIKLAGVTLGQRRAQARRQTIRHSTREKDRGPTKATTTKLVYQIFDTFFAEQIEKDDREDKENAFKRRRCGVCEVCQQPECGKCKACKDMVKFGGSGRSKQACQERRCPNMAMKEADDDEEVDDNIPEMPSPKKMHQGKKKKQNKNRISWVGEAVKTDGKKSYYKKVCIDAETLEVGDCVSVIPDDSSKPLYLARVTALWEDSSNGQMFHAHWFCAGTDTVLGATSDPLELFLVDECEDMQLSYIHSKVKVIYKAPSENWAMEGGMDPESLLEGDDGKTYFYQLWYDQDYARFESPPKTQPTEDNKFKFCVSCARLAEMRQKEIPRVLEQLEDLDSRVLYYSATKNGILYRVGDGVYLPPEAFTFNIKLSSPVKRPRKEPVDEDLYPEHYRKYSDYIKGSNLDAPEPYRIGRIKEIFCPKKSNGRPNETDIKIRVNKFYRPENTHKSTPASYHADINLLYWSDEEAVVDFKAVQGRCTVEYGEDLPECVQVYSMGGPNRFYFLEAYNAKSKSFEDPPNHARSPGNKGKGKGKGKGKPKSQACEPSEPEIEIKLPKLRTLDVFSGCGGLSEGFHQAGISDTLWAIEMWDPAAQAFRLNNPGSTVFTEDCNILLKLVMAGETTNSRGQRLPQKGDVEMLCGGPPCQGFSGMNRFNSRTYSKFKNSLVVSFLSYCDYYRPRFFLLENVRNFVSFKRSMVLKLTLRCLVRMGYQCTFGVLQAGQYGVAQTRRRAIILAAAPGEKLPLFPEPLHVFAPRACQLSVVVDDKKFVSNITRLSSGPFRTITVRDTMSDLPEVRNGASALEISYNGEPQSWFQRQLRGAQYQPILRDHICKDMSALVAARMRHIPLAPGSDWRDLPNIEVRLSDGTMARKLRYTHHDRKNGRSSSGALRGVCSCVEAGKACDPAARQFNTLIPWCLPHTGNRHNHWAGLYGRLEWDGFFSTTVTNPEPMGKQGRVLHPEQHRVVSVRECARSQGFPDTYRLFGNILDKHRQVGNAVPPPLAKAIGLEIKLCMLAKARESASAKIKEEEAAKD

As for `CC(C)(C)c1ccc(-c2noc(CCC(=O)NC3CC3)n2)cc1`, the IC50 in the assay on HEK293 [1] was > 80 µM (inactive).

`CCc1ccc(/C=C2\SC(=S)N(CCC(=O)N3CCN(C)CC3)C2=O)cc1`: the IC50 in [2] was > 100 µM (inactive); at Prothrombin, 82.7 µM (active); in assay [3], 51.6 µM (active). The CC50 (usually the concentration that lowers cell viability or growth by half) in assay [4] was 18.6 µM (active).

For `Cc1ccc2nc3c(c(N)c2c1)CCN3c1ccccc1`, in [5], the AC50 – broadly, the concentration giving half of the maximal activity seen – is 42.5 µM (active).

As to `O=C(/C=C/c1cccs1)N1CCC2(CC1)Oc1ccc(Cl)cc1C(=O)C21CC(c2cccnc2)=NO1` (centres undefined), the IC50 (in [6]; at Melanocortin receptor 4) was > 64.6 µM (inactive) each time.

For `C/C(=N\NC(=O)c1cc(O)cc(O)c1)c1ccc(NC(=O)Cc2ccccc2)cc1`, the IC50 in [7] was 50.1 µM (inactive); at SUMO-activating enzyme [8], 9.77 µM (active); in assay [9], 4.69 µM (active); at SUMO-activating enzyme [10], 0.74 µM (active); in assay [11] it was 12 µM (active).

As to `CCOc1ccc(Nc2nc(Cl)nc(N3CCN(c4ccc(OC)cc4)CC3)n2)cc1`, the IC50 (in assay [6]; at Melanocortin receptor 4) was > 64.6 µM (inactive) throughout.

Take `O=C1CC2(CC(c3ccc(Cl)cc3)=NO2)C(=O)N1c1cccc(Cl)c1` (centres undefined): the EC50 in [12] was > 100 µM (inactive).

Regarding `O=C(N/N=C\c1ccc(-c2ccc([N+](=O)[O-])cc2)o1)C1COc2ccccc2O1` (centres undefined), the values for the EC50 in [13] and in assay [14] were > 60 µM (not active) and 0.62 µM (active), respectively. The IC50 in assay [2] was > 100 µM (inactive); on Prothrombin, 36.4 µM (active); in assay [3] it was 28.2 µM (active).

For the molecule `Cn1nccc1C(=O)NC1CCCc2c1cnn2-c1ccc(F)cc1F` (centres undefined), the IC50 in [15] is 0.677 µM (active); in [16], > 80 µM (inactive); with HEK293 [17], > 20 µM (inactive); at Galanin receptor type 3, 0.24 µM (active); in the assay with Jurkat it was > 80 µM (inactive); on Tumor necrosis factor, 0.712 µM (active). The AC50 with INS1 was 1.44 µM (active). In addition, the EC50 in “cells” is > 29.9 µM (inactive).

(Values after ChEMBL document CHEMBL1201862, “PubChem BioAssay data set” (2004).)
